# Results as given in patent US20120237937A1, “METHODS TO DETECT CANCER IN ANIMALS” (UNIVERSITY OF LOUISVILLE RESEARCH FOUNDATION, INC., priority 2009, published 2012).
# Columns and labels:
# lung tumor = assay: Response of lung lesions of patient 25b to Erlotinib; assay type: in vivo, human; details: Stage I
# Excerpt: The horizontal dotted line represents a ratio of 1. […] See also, Fan et al. (2009) Exp. Molec. Pathol. 87, 83-86.
# [1] = Time course analysis of 13C-metabolites in plasma by 1H NMR after [U-13C]-Glc infusion; assay type: in vivo, human; details: 3 hrs after [U-13C]-glucose infusion, lung cancer patients
# Description: The extraction was performed twice for quantitative recovery.
# See Fan et al. (2008) Prog. NMR Spectrosc. 52, 69-117; Fan (1996) Prog. NMR Spectrosc 28, 161-219.
# In order to determine the optimal time to sample tissue after infusing [U-^13C]-Glc into lung cancer patients, we used ^1H NMR to analyze the profiles of ^13C-labeled products in plasma samples at several time points. Other than the administered tracer itself ([U-^13C]-Glc), the major ^13C-labeled metabolite in plasma was lactate. Plasma samples were collected 0, 3, and 12 hr after [U-^13C]-Glc infusion, as described in the Patient Treatment and Sample Collection section above. Unlabeled glucose and lactate concentrations were quantified by 1-D ^1H NMR using DSS as the calibration standard. Their % ^13C enrichment was determined from the respective ^13C satellite peaks in 1-D ^1H NMR spectra. Panels A-D illustrate the time course changes in glucose and lactate concentrations as well as their % ^13C enrichment. […] The chemical shifts of lactate and Ala reflected the acidic pH of the TCA extract.
# [2] = Time course of plasma 13C-glucose and 13C-lactate in SCID mice by NMR; assay type: in vivo, SCID mouse
# Description: (§1) A 20% solution of glucose in normal saline was sterile-filtered. 100 μL of this solution, or a 1:10 dilution (2%) were injected into the tail vein of a restrained mouse without anesthesia.
# Approximately 50 μL samples of blood were taken intraorbitally at timed intervals, chilled and separated into plasma and whole blood by centrifugation at 4° C. at 3,000 g for 5 minutes. Plasma was flash frozen in liquid N2 for storage prior to workup.
# Twenty to thirty μl of plasma was made to 10% trichloroacetic acid (TCA) and centrifuged at 4° C., at ≧22,000 g for 20 minutes to remove denatured proteins. The polar supernatant was lyophilized to remove TCA before preparation for NMR and GC-MS analysis.
# (§2) NMR spectra were recorded at 14.1 T on a Varian Inova spectrometer equipped with a 5 mm inverse triple resonance cold probe, at 20° C. 1D NMR spectra were recorded with an acquisition time of 2 s and a recycle time of 5 sec. Concentrations of metabolites and ^13C incorporation were determined by peak integration of the ^1H NMR spectra referenced to the DSS methyl groups, with correction for differential relaxation, as previously described (See, Lane et al. (2008) Biophysical Tools for Biologists. 84: 541-588; Fan et al. (2008) Progress in NMR Spectroscopy 52: 69-117; Lane et al. (2007) Metabolomics 3: 79-86.). ^1H Spectra were typically processed with zero filling to 131 k points, and apodized with an unshifted Gaussian and a 0.5 Hz line broadening exponential.
# The two SCID mice were injected via the tail vein with […] [U-^13C]-glucose. Blood was sequentially taken intraorbitally, and analyzed by NMR as described in the NMR Spectroscopy section. To assess the optimal time for metabolizing the ^13C6-glucose in mice, plasma samples were taken at 15-minute intervals and processed for NMR analysis. […] The initial glucose enrichment ranged from 30 to >50% depending on the size of the mouse, which means that the plasma glucose concentration was roughly doubled immediately after the bolus [U-^13C]-glucose injection. The % enrichment for glucose decreased rapidly and asymptotically within one hour, presumably via the normal homeostatic mechanism. […] The initial rate of ^13C lactate production was approximately equal to the initial rate of glucose consumption, but then decayed after about 20 minutes.
# [3] = Isotopic enrichment in SCID mouse tissue lactate and glucose by 1D 1H NMR; assay type: in vivo; details: Lac at C3, Glc at C1α
# Description: as §1
# Mice were sacrificed at different times post glucose injection, and the following organs were dissected sequentially: lung, heart, liver, kidney, brain, spleen, and thigh muscle. Dissected tissue was flash frozen in liquid N2 within 1 minute of killing the animal.
# Frozen tissues were ground in liquid N2 to <10 μm particles in a 6750 Freezer/Mill (Retsch, Inc., Newtown, Pa.) and extracted for soluble and lipidic metabolites as follows. Up to 20 mg of frozen tissue powder in 15 ml polypropylene conical centrifuge tube (Sarstedt, Newton, N.C.) containing 3 mm diameter glass beads was vigorously mixed with 2 ml of cold acetonitrile (mass spectrometry grade, stored at −20° C.) to denature proteins, followed by addition of 1.5 ml nanopure water, and 1 ml HPLC-grade chloroform (Fisher Scientific). The mixture was shaken vigorously until achieving a milky consistency followed by centrifugation at 3,000 g for 20 minutes at 4° C. to separate the polar (top), lipidic (bottom), and tissue debris layers (interface). The polar and lipidic layers were recovered sequentially and the remaining cell debris was extracted again with 0.5 ml chloroform:methanol:butylated hydroxytoluene (BHT) (2:1:1 mM) which was pooled with the lipidic fraction. All three fractions were vacuum-dried in a speedvac device (Vacufuge, Eppendorf, New York, N.Y.) and/or by lyophylization. The dry weight of tissue debris was obtained for normalization of metabolite content. The polar extracts were redissolved in 100% D2O containing 30 nmol perdeuterated DSS (2,2-dimethyl-2-silapentane-5-sulfonate, Cambridge Isotope Laboratories, Andover, Mass.) as internal chemical shift and concentration reference for NMR measurement.
# as §2
# The same extracts from FIG. 9 were analyzed by NMR to complement the GC-MS analysis. The ^13C enrichment into glucose/glucose-6-phosphate and lactate was determined by 1D ^1H NMR. The enrichments at 15 and 30 minutes post infusion were substantial in all tissues, and peak lactate enrichments differed according to the metabolic activity or glucose uptake rates of the different tissues (Table 7).
# Lac measured at C3, G1c measured at C1α by NMR
# [4] = GC-MS quantification of total and 13C-enriched metabolites in paired normal and cancerous lung tissues
# [5] = NMR 13C-isotopomer profiling of TCA extracts of paired non-cancerous and cancerous lung tissues; details: in vivo
# Description: Lung cancer patients were recruited based on the criteria of surgical eligibility and no history of diabetes. Each patient was consented in accordance with the U.S. HIPAA regulations. The following patient protocol was approved by the Internal Review Board at the University of Louisville. Ten grams uniformly ^13C labeled glucose ([U-^13C]-Glc or ^13C6-Glc or ^13C6-Glucose) in sterile saline solution were infused i.v. over a 30 min time period into each patient in the pre-op room approximately 3 or 12 hr prior to resection. Whole blood samples were collected into a vacutainer containing the anticoagulant K3EDTA or K3-EDTA before and after [U-^13C]-Glc infusion as well as after the surgery. Additional blood samples were collected 3 and 12 hr after the [U-^13C]-Glc infusion for the 12 hr treatment cases. […] The blood samples were placed on ice immediately after collection and centrifuged at 4° C. at 3,500×g for 15 min to recover the plasma fraction. All blood samples were aliquoted and flash-frozen in liquid N2 within 30 min of collection. Potassium EDTA was used as an anti-coagulant to minimize metabolic artifacts associated with anti-coagulation; it also served to remove the influence of interfering cations such as paramagnetic Fe^3+ and Cu^2+ for NMR analysis.
# All timings from first incision to cutting arteries and veins to the lung were recorded so that the period of ischemia could be determined immediately after tissue resection, excess blood was blotted from the tissue, and small pieces of non-cancerous and tumor tissue were cut by the surgeon and freeze-clamped in liquid N2 within 5 minutes of removal from the chest cavity. The freezing process arrested metabolic changes almost instantaneously. […] Non-cancerous tissue was removed at least 2 cm from the tumor margin and certified to be tumor-free by trained pathologists. Subsequent pathological evaluation also confirmed tumor status and provided the tumor stage. All samples were stored at −80° C. until further processing for analysis.
# Frozen tissue samples were pulverized into <10 μm particles in liquid N2 using a Spex freezer mill (Spex CertiPrep, Inc., Metuchen, N.J.) to maximize efficiency for subsequent extraction while maintaining biochemical integrity. An aliquot of the frozen powder was lyophilized before extraction for metabolites.
# Water-soluble or polar metabolites were extracted from lyophilized tissue powders (4-48 mg) in ice-cold 10% trichloroacetic acid (TCA) (v/w minimum 40/1) while leaving proteins, nucleic acids, and polysaccharides behind, as described previously (Kim et al. Antioxidants & Redox Signaling 2001, 3:361-373). The extraction was performed twice for quantitative recovery. An aliquot (150 μl) of plasma samples were made to final 10% TCA concentration to precipitate proteins and recover metabolites in the supernatant. TCA was then removed from tissue or plasma extracts by lyophilization. The dry pellet was dissolved in nanopure water and two small aliquots were lyophilized for silylation and GC-MS analysis while the remaining bulk was passed through a Chelex 100 resin column (Bio-Rad Laboratories, Inc., Hercules, Calif.) to neutralize and remove interfering multivalent cations for NMR analysis.
# The ^1H reference standard, DSS (2,2-Dimethyl-2-silapentane-5-sulfonate sodium salt) was added (30 or 50 nmoles) to the TCA extracts of tissue or plasma samples, respectively. […]
smiles,measurement,setting,value
C#Cc1cccc(Nc2ncnc3cc(OCCOC)c(OCCOC)cc23)c1 [Erlotinib],response of lesion,lung tumor; lower lobe (LL) lesion,responded
same,response of lesion,lung tumor; upper lobe (UL) lesion,did not
CC(O)C(=O)O (stereo not shown) [lactate],% 13C enrichment in plasma,[1],5-22%
same,peak % 13C enrichment in plasma,"[2]; SCID mice, after [U-13C]-glucose bolus",8-12%
same,time of peak 13C enrichment in plasma,"[2]; SCID mice, post injection",15 to 20 min
same,% 13C isotopic enrichment in tissue,"[3]; Heart, 15 min",25%
same,% 13C isotopic enrichment in tissue,"[3]; Heart, 30 min",33%
same,% 13C isotopic enrichment in tissue,"[3]; Kidney, 15 min",19%
same,% 13C isotopic enrichment in tissue,"[3]; Kidney, 30 min",17%
same,% 13C isotopic enrichment in tissue,"[3]; Liver, 15 min",11%
same,% 13C isotopic enrichment in tissue,"[3]; Liver, 30 min",13%
same,% 13C isotopic enrichment in tissue,"[3]; Lung N, 15 min",20%
same,% 13C isotopic enrichment in tissue,"[3]; Lung N, 30 min",17%
same,% 13C isotopic enrichment in tissue,"[3]; Thigh muscle, 15 min",17%
same,% 13C isotopic enrichment in tissue,"[3]; Thigh muscle, 30 min",11%
same,metabolite content of lung tissue,"[4]; patient #6 (sqC, grade II), cancer tissue",29.55 μmole/g dry weight
same,metabolite content of lung tissue,"[4]; patient #6 (sqC, grade II), normal tissue",2.66 μmole/g dry weight
same,metabolite content of lung tissue,"[4]; patient #7 (adenoC, grade II), cancer tissue",10.62 μmole/g dry weight
same,metabolite content of lung tissue,"[4]; patient #7 (adenoC, grade II), normal tissue",11.80 μmole/g dry weight
same,metabolite content of lung tissue,"[4]; patient #8 (sqC, grade II-III), cancer tissue",17.72 μmole/g dry weight
same,metabolite content of lung tissue,"[4]; patient #8 (sqC, grade II-III), normal tissue",9.44 μmole/g dry weight
same,metabolite content of lung tissue,"[4]; patient #9 (sqC, grade II), cancer tissue",25.31 μmole/g dry weight
same,metabolite content of lung tissue,"[4]; patient #9 (sqC, grade II), normal tissue",19.52 μmole/g dry weight
same,metabolite content of lung tissue,"[4]; patient #10 (sqC, grade III), cancer tissue",29.67 μmole/g dry weight
same,metabolite content of lung tissue,"[4]; patient #10 (sqC, grade III), normal tissue",8.27 μmole/g dry weight
"O[13CH2][13C@H]1O[13CH](O)[13C@H](O)[13C@@H](O)[13C@@H]1O (stereo partly shown) [[U-^13C]-Glucose, uniformly ^13C labeled glucose, reference compound]",% 13C enrichment of metabolite in lung tissue,[5],15.5%
same,apparent half-life in plasma,"[2]; mouse, in vivo",16 to 22 min
same,initial % 13C enrichment in plasma,"[2]; mouse, in vivo",65%
